Results on 13 compounds are retold here after patent US9073895B2 (Boehringer Ingelheim International GmbH, priority 2010, dated 2015).

Assay [1] deals with T1, recombinant human FLAP protein (Homo sapiens, UniProt P20292).
T1 construct: made in house; host or cells: Sf9 insect cells (membrane fraction, 100,000 x g pellet)
T1 sequence (P20292 1-161): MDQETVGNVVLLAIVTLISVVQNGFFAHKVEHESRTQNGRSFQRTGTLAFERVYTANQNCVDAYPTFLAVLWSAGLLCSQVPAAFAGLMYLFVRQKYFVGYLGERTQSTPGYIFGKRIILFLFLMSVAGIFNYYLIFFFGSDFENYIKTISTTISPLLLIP
Kind of assay: FLAP binding assay (SPA, displacement of [125I]L-691,831). To be noted: membranes of sf9 cells expressing human FLAP, [125I]L-691,831 probe; read-out: hFLAP binding IC50. The gist of the method:
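Membranes from sf9 cells expressing human FLAP (5 μg/well) were bound to WGA SPA beads (200 μg/well). Nonspecific binding was defined with 10 μM unlabelled L-691,831.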

The test system of assay [2] is synthesis of LTB4 in human whole blood. Kind of assay: Human whole blood LTB4 production inhibition assay. To be noted: heparinized human whole blood, calcimycin 20 μM, plasma LTB4; read-out: HuWB IC50. In kind it is cell-based. The gist of the method: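 Heparinized human whole blood preincubated with compound 15 min at 37 °C, then stimulated with calcimycin (20 μM final) for 30 min at 37 °C. Plasma LTB4 measured after low-speed centrifugation by antibody-based homogeneous time-resolved fluorescence.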

The IC50 is the concentration that gives 50% inhibition.

`Cc1nccn1-c1ccc(NC(=O)C2(c3ccc(-c4cnc(N)nc4)cc3)CCOCC2)cc1` [Example 224, 4-[4-(2-aminopyrimidin-5-yl)phenyl]-N-[4-(2-methyl-1H-imidazol-1-yl)phenyl]tetrahydro-2H-pyran-4-carboxamide]: the IC50 in assay [1] is 30 nM; in assay [2] it was 718 nM.

On to `Nc1ncc(-c2ccc(C3(C(=O)Nc4cccnn4)CCC3)cc2)cn1` [Example 225, 1-[4-(2-aminopyrimidin-5-yl)phenyl]-N-(pyridazin-3-yl)cyclobutanecarboxamide], for which the figures for the IC50 in assay [1] and in assay [2] were 78 nM and 1370 nM, respectively.

Turning to `CC(C)C(C)(C(=O)Nc1ccncc1)c1ccc(-c2ccc(N(C)C)nc2)cc1` (centres unmarked) [Example 227, 2-{4-[6-(dimethylamino)pyridin-3-yl]phenyl}-2,3-dimethyl-N-(pyridin-4-yl)butanamide], the IC50 in assay [1] was 40.5 nM; in assay [2] it was over 3000 nM.

Consider `CCC(C)(C(=O)Nc1ccc(-c2csc(C)n2)cn1)c1ccc(-c2cnc(N)nc2)cc1` (centres unmarked) [Example 228, 2-[4-(2-aminopyrimidin-5-yl)phenyl]-2-methyl-N-[5-(2-methyl-1,3-thiazol-4-yl)pyridin-2-yl]butanamide], for which the values for the IC50 in assay [1] and in assay [2] were 12 nM and 1100 nM, respectively.

In the case of `Cc1nccn1-c1ccc(NC(=O)C2(c3ccc(-c4cnc(N)nc4)cc3)CCC2)cc1` [Example 229, 1-[4-(2-aminopyrimidin-5-yl)phenyl]-N-[4-(2-methyl-1H-imidazol-1-yl)phenyl]cyclobutanecarboxamide], the IC50 in assay [1] turned out to be 6.65 nM; in assay [2] it was 153 nM.

In the case of `Nc1ncc(-c2ccc(C3(C(=O)Nc4ccncc4)CCCC3)cc2)cn1` [Example 230, 1-[4-(2-aminopyrimidin-5-yl)phenyl]-N-(pyridin-4-yl)cyclopentanecarboxamide], the IC50 in assay [1] is 21.5 nM; in assay [2], 696 nM.

With `CCC(C)(C(=O)Nc1ccncc1)c1ccc(-c2cnc(N)nc2)cc1` (centres unmarked) [Example 231, 2-[4-(2-aminopyrimidin-5-yl)phenyl]-2-methyl-N-(pyridin-4-yl)butanamide], the IC50 came to 84 nM in assay [1] and 1210 nM in assay [2].

In the case of `N#Cc1ccc(NC(=O)C2(c3ccc(-c4cnc(N)nc4)cc3)CCC2)nc1` [Example 232, 1-[4-(2-aminopyrimidin-5-yl)phenyl]-N-(5-cyanopyridin-2-yl)cyclobutanecarboxamide], the figures for the IC50 in assay [1] and in assay [2] were 7.45 nM and 152 nM, respectively.

In the case of `CS(=O)(=O)c1ccc(NC(=O)C2(c3ccc(-c4cnc(N)nc4)cc3)CCC2)cc1` [Example 233, 1-[4-(2-aminopyrimidin-5-yl)phenyl]-N-[4-(methylsulfonyl)phenyl]cyclobutane-carboxamide], the IC50 in assay [1] is 6.5 nM; in assay [2] it was 160 nM.

Turning to `CN1CCc2nc(NC(=O)C3(c4ccc(-c5cnc(N)nc5)cc4)CCC3)sc2C1` [Example 234, 1-[4-(2-aminopyrimidin-5-yl)phenyl]-N-(5-methyl-4,5,6,7-tetrahydro[1,3]thiazolo[5,4-c]pyridin-2-yl)cyclobutanecarboxamide], the IC50 in assay [1] was 32.5 nM; in assay [2], 858 nM.

As for `Cc1nc(-c2ccc(NC(=O)C(C)(C)c3ccc(-c4cnc(N)nc4)cc3)nc2)cs1` [Example 235, 2-[4-(2-aminopyrimidin-5-yl)phenyl]-2-methyl-N-[5-(2-methyl-1,3-thiazol-4-yl)pyridin-2-yl]propanamide], the IC50 came to 5.4 nM in assay [1] and 627 nM in assay [2].

Regarding `N#Cc1cc(NC(=O)C2(c3ccc(-c4cnc(N)nc4)cc3)CCC2)ccn1` [Example 236, 1-[4-(2-aminopyrimidin-5-yl)phenyl]-N-(2-cyanopyridin-4-yl)cyclobutanecarboxamide], the IC50 in assay [1] is 3.45 nM; in assay [2] it was 290 nM.

In the case of `CCOC(=O)c1ccc(NC(=O)C2(c3ccc(-c4cnc(N)nc4)cc3)CCC2)nc1` [Example 237, ethyl 6-[({1-[4-(2-aminopyrimidin-5-yl)phenyl]cyclobutyl}carbonyl)amino]pyridine-3-carboxylate], the values for the IC50 in assay [1] and in assay [2] were 1.9 nM and 43 nM, respectively.
